Results on 8 molecules are retold here after US20050032124A1, “Identification of genotype-selective agents for treating Huntington's disease” (priority 2003, published 2005).

Holding throughout (test): Calcein AM viability assay, dilution-series retest
One assay deals with TIP5/TERT cells. The class given is cell-based, human. Conditions: Homo sapiens, 48 h, read-out: IC50, TIP5-TERT. An excerpt:
(§1) In a third series, cell lines derived from independently prepared human TIP5 foreskin fibroblasts created by introducing cDNA constructs encoding hTERT, LT, ST and RASV12 (Lessnick et al., 2002, Cancer Cell 1, 393-401) were used. These cell lines were called, respectively: TIP5/TERT, TIP5/TERT/LT, TIP5/TERT/LT/ST, and TIP5/TERT/LT/ST/RAS^V12. In a fourth series, cell lines derived from TIP5 fibroblasts created by introducing cDNA constructs encoding hTERT, E6, E7, ST and RAS^V12 were used. These cell lines were named, respectively: TIP5/TERT/E6, TIP5/TERT/E6/E7, TIP5/TERT/E6/E7/ST, and TIP5/TERT/E6/E7/ST/RAS^V12. In this series, HPV E6 and E7, which inactivate p53 and RB, respectively, serve a similar function as LT in the previous series. However, by using HPV E6 and E7, Applicants were able to observe the effects of inactivating, separately and independently, p53 and RB. Results of a large-scale screen for compounds that display selective killing of these engineered tumorigenic cell lines are described in the examples that follow.
(§2) Calcein acetoxylmethyl ester (AM) is a cell membrane-permeable, non-fluorescent compound that is cleaved by intracellular esterases to form the anionic, cell-impermeable, fluorescent compound calcein. Viable cells are stained by calcein because of the presence of intracellular esterases and because the intact plasma membrane prevents fluorescent calcein from leaking out of cells (Wang et al., 1993, supra). Cells were seeded in 384-well plates using a Zymark Sciclone ALH, treated with each compound in triplicate at 4 μg/mL in the primary screen for two days, washed with phosphate-buffered saline on a Packard Minitrak with a 384-well washer and incubated for four hours with 0.7 μg/mL calcein (Molecular Probes). Total fluorescence intensity in each well was recorded on a Packard Fusion platereader, and converted to a percent inhibition of signal by subtracting the instrument background and dividing by the average signal obtained when cells were not treated with any compound.
(§3) Replica daughter plates were prepared with a Zymark Sciclone ALH and integrated Twister II by diluting stock plates 50 fold in medium lacking serum and pen/strep to obtain a compound concentration in daughter plates of 80 μg/ml with 2% DMSO. Assay plates were prepared by seeding cells in black, clear bottom 384-well plates in columns 1-23 (6000 cells/well in 57 μl) using a syringe bulk dispenser. Columns 3-22 were treated with compounds from a daughter library plate by transferring 3 μl from the daughter library plate using 384-position fixed cannula array. The final compound concentrations in assay plates were thus 4 μg/ml. The assay plates were incubated for 48 hours at 37° C. in humidified incubator containing 5% CO2. Plate processing for the calcein AM viability assay was performed using an integrated Minitrak/Sidetrak robotic system from Packard Bioscience (Perkin Elmer). Assay plates were washed with phosphate buffered saline, and 20 μl of calcein AM (0.7 μg/ml) per well was added. Plates were incubated at room temperature for 4 hours. Fluorescence intensity was determined using a Fusion platereader with filters centered on an excitation of 485 nm and an emission of 535 nm.
(§4) Compounds to be retested were purchased from manufacturers. Stocks were prepared in DMSO at a concentration of 1 mg/ml in 384-well polypropylene plates with a 16-point, two-fold dilution dose curve of each compound in a column, in duplicates. Column 1-2 and 23-24 were left empty for controls. Daughter retest plates were prepared from stock retest plate by diluting 66.6 fold in DMEM in 384-well deep-deep well plates (4.5 μl transfer into 300 μl). Cells were seeded at a density of 6000 per well in 40 μl, and 20 μl was added from a daughter retest plate. The plates were incubated for two days at 37° C. with 5% CO2.
(§5) Mean RFU (relative fluorescence units) for untreated cells was calculated by averaging columns 1, 2, and 23 (wells with cells but lacking compounds). […]

The next assay concerns TIP5/TERT/E6/E7/ST cells. The class given is cell-based, human. The following applies: Homo sapiens, 48 h, read-out: IC50, TIP5-TERT/E6E7 ST.
From the text: as §1, §2, §3, §4, §5

In assay [1] the test system is TIP5/TERT/E6/E7/ST/RAS^V12 cells. It is filed as cell-based, human. The following applies: Homo sapiens, 48 h, read-out: IC50, TIP5-TERT/E6E7 ST/Ras^V12.
From the text: as §1, §2, §3, §4, §5

The next assay deals with TIP5/TERT/E6/E7 cells. The class given is cell-based, human. Conditions: for IC50: Homo sapiens, 48 h, read-out: IC50, TIP5-TERT/E6E7.
From the text: as §1, §2, §3, §4, §5

In assay [2] the test system is TIP5/TERT/LT/ST/RAS^V12 cells. It is filed as cell-based, human. Conditions: Homo sapiens, 48 h, read-out: IC50, TIP5 TERT/LT/ST/Ras^V12.
From the text: as §1, §2, §3, §4, §5

In the next assay the test system is TIP5/TERT/LT cells. The class given is cell-based, human. The following applies: Homo sapiens, 48 h, read-out: IC50, TIP5 TERT/LT.
From the text: as §1, §2, §3, §4, §5

Another assay relates to TIP5/TERT/LT/ST cells. It is filed as cell-based. Conditions: Homo sapiens, 48 h, read-out: IC50, TIP5 TERT/LT/ST.
From the text: as §1, §2, §3, §4, §5

The test system of a further assay is TIP5/TERT/E6 cells. The class given is cell-based. The following applies: Homo sapiens, 48 h, read-out: IC50, TIP-TERT/E6.
From the text: as §1, §2, §3, §4, §5

Where [3] appears, read: TIP5-TERT cells, 16-point two-fold dilution, two days.
Setting [4] is: TIP5-TERT/E6E7/ST cells, 16-point two-fold dilution, two days.
[5] abbreviates: TIP5-TERT/E6E7/ST/Ras^V12 cells, 16-point two-fold dilution, two days.
Setting [6] is: TIP5-TERT/E6E7 cells, 16-point two-fold dilution, two days.
The mark [7] stands for this setting: TIP5 TERT/LT/ST/Ras^V12 cells, 16-point two-fold dilution, two days.
[8] abbreviates: TIP5 TERT/LT cells, 16-point two-fold dilution, two days.
Where [9] appears, read: TIP5 TERT/LT/ST cells, 16-point two-fold dilution, two days.
[10] abbreviates: TIP-TERT/E6 cells, 16-point two-fold dilution, two days.

In brackets after ≈: the same amount, converted by molar mass. Read-outs that look alike come from different tables or passages of the source.

In the case of `COc1ccc(C[C@H]2C(=O)N[C@@H](C)C(=O)N(C)[C@@H]3C(=O)N(C)[C@@H](Cc4ccc(O)c(c4)Oc4ccc(cc4)[C@@H]3O)C(=O)N[C@H](C)C(=O)N[C@@H](C)C(=O)N2C)cc1` [Bouvardin], the IC50 in the assay with TIP5/TERT cells was over 5 µg/mL; with TIP5/TERT/E6/E7/ST cells it was 0.039 µg/mL (≈ 0.0505 µM); in assay [1], 0.078 µg/mL (≈ 0.101 µM); in the assay with TIP5/TERT/E6/E7 cells, 0.039 µg/mL (≈ 0.0505 µM); in assay [2] it was 0.039 µg/mL (≈ 0.0505 µM); in the assay on TIP5/TERT/LT cells, 0.312 µg/mL (≈ 0.404 µM). The IC50 with TIP5/TERT/LT/ST cells was 0.039 µg/mL (≈ 0.0505 µM); in the assay on TIP5/TERT/E6 cells, 0.078 µg/mL (≈ 0.101 µM).

In the case of `CC[C@@]1(O)C(=O)OCc2c1cc1n(c2=O)Cc2cc3ccccc3nc2-1` [Camptothecin], the IC50 is over 5 µg/mL in the assay on TIP5/TERT cells (setting [3]); 0.156 µg/mL (≈ 0.448 µM) in the assay on TIP5/TERT/E6/E7/ST cells (setting [4]); 0.156 µg/mL (≈ 0.448 µM) in assay [1] (setting [5]); 0.625 µg/mL (≈ 1.79 µM) in the assay on TIP5/TERT/E6/E7 cells (setting [6]); 0.156 µg/mL (≈ 0.448 µM) in assay [2] (setting [7]); over 5 µg/mL with TIP5/TERT/LT cells (setting [8]). The IC50 in the assay on TIP5/TERT/LT/ST cells (setting [9]) was 0.156 µg/mL (≈ 0.448 µM); in the assay with TIP5/TERT/E6 cells (setting [10]), over 5 µg/mL. Further, the “activity in cells lacking RB function (via expression of E7)” value with TIP5/TERT/E6/E7 cells was “partially active”.

Take `COc1cccc2c1C(=O)c1c(O)c3c(c(O)c1C2=O)C[C@@](O)(C(C)=O)C[C@@H]3O[C@H]1C[C@H](N)[C@H](O)[C@H](C)O1` [Daunorubicin]: the IC50 was over 5 µg/mL with TIP5/TERT cells; 0.625 µg/mL (≈ 1.18 µM) with TIP5/TERT/E6/E7/ST cells; 0.625 µg/mL (≈ 1.18 µM) in assay [1]; 0.625 µg/mL (≈ 1.18 µM) in the assay with TIP5/TERT/E6/E7 cells; 0.825 µg/mL (≈ 1.56 µM) in assay [2]; 1.25 µg/mL (≈ 2.37 µM) in the assay on TIP5/TERT/LT cells. Moreover, the IC50 in the assay on TIP5/TERT/LT/ST cells is 0.625 µg/mL (≈ 1.18 µM); in the assay with TIP5/TERT/E6 cells, 5 µg/mL (≈ 9.48 µM).

With `COc1cccc2c1C(=O)c1c(O)c3c(c(O)c1C2=O)C[C@@](O)(C(=O)CO)C[C@@H]3O[C@H]1C[C@H](N)[C@H](O)[C@H](C)O1` [Doxorubicin], the IC50 in the assay with TIP5/TERT cells (setting [3]) is over 5 µg/mL; in the assay with TIP5/TERT/E6/E7/ST cells (setting [4]), 1.25 µg/mL (≈ 2.3 µM); in assay [1] (setting [5]) it was 1.25 µg/mL (≈ 2.3 µM); with TIP5/TERT/E6/E7 cells (setting [6]), 1.25 µg/mL (≈ 2.3 µM); in assay [2] (setting [7]), 0.625 µg/mL (≈ 1.15 µM); in the assay on TIP5/TERT/LT cells (setting [8]), 1.25 µg/mL (≈ 2.3 µM). The IC50 in the assay on TIP5/TERT/LT/ST cells (setting [9]) was 0.625 µg/mL (≈ 1.15 µM); in the assay on TIP5/TERT/E6 cells (setting [10]), 5 µg/mL (≈ 9.2 µM).

For `CS[C@H]1SC[C@H]2C(=O)N(C)[C@@H](C(C)C)C(=O)OC[C@@H](NC(=O)c3cnc4ccccc4n3)C(=O)N[C@@H](C)C(=O)N(C)[C@@H]1C(=O)N(C)[C@@H](C(C)C)C(=O)OC[C@@H](NC(=O)c1cnc3ccccc3n1)C(=O)N[C@@H](C)C(=O)N2C` [Echinomycin], the IC50 is over 5 µg/mL in the assay with TIP5/TERT cells; 0.048 µg/mL (≈ 0.0436 µM) in the assay with TIP5/TERT/E6/E7/ST cells; 0.0048 µg/mL (≈ 0.00436 µM) in assay [1]; 0.048 µg/mL (≈ 0.0436 µM) in the assay on TIP5/TERT/E6/E7 cells; 0.0024 µg/mL (≈ 0.00218 µM) in assay [2]; 5 µg/mL (≈ 4.54 µM) with TIP5/TERT/LT cells. In addition, the IC50 was 0.0048 µg/mL (≈ 0.00436 µM) in the assay with TIP5/TERT/LT/ST cells and over 5 µg/mL in the assay with TIP5/TERT/E6 cells.

Regarding `CCOc1ccccc1-n1c(C(C)N2CCN(C(=O)COc3ccc(Cl)cc3)CC2)nc2ccccc2c1=O` (centres unmarked) [Erastin], the IC50 is over 5 µg/mL in the assay on TIP5/TERT cells (setting [3]); over 5 µg/mL in the assay with TIP5/TERT/E6/E7/ST cells (setting [4]); 5 µg/mL (≈ 9.14 µM) in assay [1] (setting [5]); over 5 µg/mL in the assay on TIP5/TERT/E6/E7 cells (setting [6]); 2.5 µg/mL (≈ 4.57 µM) in assay [2] (setting [7]); over 5 µg/mL in the assay with TIP5/TERT/LT cells (setting [8]). Besides, the IC50 was 5 µg/mL (≈ 9.14 µM) with TIP5/TERT/LT/ST cells (setting [9]) and over 5 µg/mL in the assay on TIP5/TERT/E6 cells (setting [10]).

As to `O=C1c2c(O)ccc(O)c2C(=O)c2c(NCCNCCO)ccc(NCCNCCO)c21` [Mitoxantrone], the IC50 in the assay with TIP5/TERT cells (setting [3]) is over 5 µg/mL; in the assay with TIP5/TERT/E6/E7/ST cells (setting [4]), 0.625 µg/mL (≈ 1.41 µM); in assay [1] (setting [5]) it was 1.25 µg/mL (≈ 2.81 µM); with TIP5/TERT/E6/E7 cells (setting [6]), 0.625 µg/mL (≈ 1.41 µM); in assay [2] (setting [7]) it was 1.25 µg/mL (≈ 2.81 µM); with TIP5/TERT/LT cells (setting [8]) it was 1.25 µg/mL (≈ 2.81 µM). The values for the IC50 in the assay with TIP5/TERT/LT/ST cells (setting [9]) and in the assay with TIP5/TERT/E6 cells (setting [10]) were 0.625 µg/mL (≈ 1.41 µM) and 1.25 µg/mL (≈ 2.81 µM), respectively.

On to `NC(=O)c1cn([C@@H]2O[C@H](CO)[C@@H](O)[C@H]2O)c2ncnc(N)c12` [Sangivamycin], for which the IC50 in the assay on TIP5/TERT cells was 1.25 µg/mL (≈ 4.04 µM); in the assay on TIP5/TERT/E6/E7/ST cells it was 0.078 µg/mL (≈ 0.252 µM); in assay [1] it was 0.078 µg/mL (≈ 0.252 µM); with TIP5/TERT/E6/E7 cells, 0.078 µg/mL (≈ 0.252 µM); in assay [2], 0.078 µg/mL (≈ 0.252 µM); with TIP5/TERT/LT cells it was 0.312 µg/mL (≈ 1.01 µM). In addition, the figures for the IC50 in the assay with TIP5/TERT/LT/ST cells and in the assay on TIP5/TERT/E6 cells were 0.039 µg/mL (≈ 0.126 µM) and 0.156 µg/mL (≈ 0.504 µM), respectively.
